What was measured:
[1] = test system: CCRF-CEM; experiment: NCI-60 single-dose screen; format: cell-based; conditions: Homo sapiens, single dose 10 µM, '-' = no inhibition, read-out: % Growth Inhibition
Method: (§1) The National Cancer Institute’s Developmental Therapeutic Program (www.dtp.nci.nih.gov) has tested compounds 9–29 (except compounds 21 and 22) against 60 cancer cell lines from nine types (leukemia, lung, colon, CNS, melanoma, ovarian, renal, prostate, and breast cancer) at a single dose (10 μM) ([El-Sherief et al., 2018]). […] The most sensitive cells included leukemia (SR, K-562, and MOLT-4), lung (NCI-H522, […], and EKVX), breast (MCF-7 and T-47D), colon (HCT-15 and HT-29), and ovarian (NCI/ADR-RES).
(§2) The National Cancer Institute’s Developmental Therapeutic Program (www.dtp.nci.nih.gov) evaluated compounds 9–29 (excluding 21 and 22) against 60 cancer cell lines from nine categories (leukemia, lung, colon, CNS, melanoma, ovarian, renal, prostate, and breast cancer) at a single dose (10 μM) ([El-Sherief et al., 2018]). See Supplementary Material A1 for more details.

[2] = test system: HT29; experiment: NCI-60 single-dose screen; format: cell-based; conditions: Homo sapiens, HT-29, single dose 10 µM, '-' = no inhibition, read-out: % Growth Inhibition
Method: as §1, §2

[3] = test system: MOLT-4; experiment: NCI-60 single-dose screen; format: cell-based; conditions: Homo sapiens, single dose 10 µM, '-' = no inhibition, read-out: % Growth Inhibition
Method: as §1, §2

[4] = test system: SF-295; experiment: NCI-60 single-dose screen; format: cell-based; conditions: Homo sapiens, single dose 10 µM, '-' = no inhibition, read-out: % Growth Inhibition
Method: as §1, §2

[5] = Cell viability assay (MTT) on normal cells; format: cell-based; conditions: human, MCF-10A normal mammary gland epithelial cells, 4 days incubation
Method: (§3) This experiment examines the impact of the newly developed compounds 9–29 on normal cell lines to assess their safety level. The vitality of the investigated compounds was assessed using the MCF-10 A cell line, a normal human mammary gland epithelial cell line. Following 4 days of incubation on MCF-10 A cells with each examined compound at a concentration of 50 μM, the vitality of the cells was assessed using the MTT test ([Mahmoud et al., 2022]; [Mekheimer et al., 2022]).
as §3, with “The viability” for “The vitality”, “of 9–29” for “of the investigated compounds”, “2022]). Refer to Supplementary Material A1 for more details. […]” for “2022]).”
4.2. Biological evaluation
4.2.1. Cytotoxic activity using MTT Assay and evaluation of IC50
MTT assay was carried out to study the effect of compounds on mammary epithelial cells (MCF-10A). The medium in which cells were propagated contained Dulbecco's modified Eagle's medium (DMEM)/ Ham's F-12 medium (1:1) supplemented with epidermal growth factor (20 ng/mL), hydrocortisone (500 ng/mL), insulin (10 μg/mL), 2 mM glutamine and 10% foetal calf serum.
After every 2-3 days, the cells were passaged using trypsin ethylenediamine tetra acetic acid (EDTA). The cells were seeded at a density of 10^4 cells mL-1 in flat-bottomed culture plates containing 96 wells each. After 24 h, medium was removed from the plates and the compounds in (in 0.1% DMSO) were added (in 200 μL medium to yield a final concentration of 0.1% v/v) to the wells of plates. A single compound was designated with four wells followed by incubation of plates for 96h at 37°C. After incubation, medium was removed completely from the plates followed by addition of MTT (0.4 mg/mL in medium) to each well and subsequent incubation of plates for 3h. MTT (along with the medium) was removed and DMSO (150μL) was added to each well of the culture plates, followed by vertexing and subsequent measurement of absorbance (at 540 nm) using microplate reader. The data are shown as percentage inhibition of proliferation in comparison with controls containing 0.1% DMSO. […]

[6] = test system: A-549; experiment: Antiproliferative assay (MTT); format: cell-based; conditions: Homo sapiens, A549, A-549 (lung), read-out: Antiproliferative activity IC50 ± SEM, A-549
Description: (§4) The MTT test was employed for this investigation ([Hisham et al., 2022]; [El-Sherief et al., 2019]; [Ramadan et al., 2020]). Table 2 presents the four cancer cell lines’ median inhibitory concentration (IC50) and GI50 (average IC50) values.
(§5) The MTT test was employed for this investigation ([Hisham et al., 2022]; [El-Sherief et al., 2019]; [Ramadan et al., 2020]). The IC50 values were derived from dose-response tests. The reported data are derived from at least two independent studies, each comprising three replicates per concentration. See Supplementary Material A1 for more details.
(§6) (in 0.1% DMSO) were added (in 200 μL medium to yield a final concentration of 0.1% v/v) to the wells of plates. A single compound was designated with four wells followed by incubation of plates for 96h at 37°C. After incubation, medium was removed completely from the plates followed by addition of MTT (0.4 mg/mL in medium) to each well and subsequent incubation of plates for 3h. MTT (along with the medium) was removed and DMSO (150μL) was added to each well of the culture plates, followed by vertexing and subsequent measurement of absorbance (at 540 nm) using microplate reader. The data are shown as percentage inhibition of proliferation in comparison with controls containing 0.1% DMSO.
(§7) 4.2.1.2. Assay for antiproliferative effect […]
(§8) (10%) and 1 µg/mL each of aprotinin, leupeptin and pepstatin for 120 min. The purification was performed either at 4 °C or on ice. To record autophosphorylation level, EGFR kinase assay was carried out on the basis of DELFIA/Time-Resolved Fluorometry. The compounds were first
(§9) (1 picture or pasted object on this page, not shown here)

[7] = test system: HT-29; experiment: Antiproliferative assay (MTT); format: cell-based; conditions: Homo sapiens, HT-29 (colon), read-out: Antiproliferative activity IC50 ± SEM, HT-29
Description: as §4, §5, §6, §7, §8, §9

[8] = test system: MCF-7; experiment: Antiproliferative assay (MTT); format: cell-based; conditions: Homo sapiens, MCF7, MCF-7 (breast), read-out: Antiproliferative activity IC50 ± SEM, MCF-7
Description: as §4, §5, §6, §7, §8, §9

[9] = test system: Panc-1; experiment: Antiproliferative assay (MTT); format: cell-based; conditions: Homo sapiens, Panc-1 (pancreatic), read-out: Antiproliferative activity IC50 ± SEM, Panc-1
Description: as §4, §5, §6, §7, §8, §9

[10] = test system: four cancer cell lines (A-549, MCF-7, Panc-1, HT-29); experiment: Antiproliferative assay, average over four cancer cell lines; format: cell-based; conditions: Homo sapiens; average of the four cancer cell lines; read-out: Average IC50 (GI50)
Description: Table 2 presents the four cancer cell lines’ median inhibitory concentration (IC50) and GI50 (average IC50) values.
The IC50 values were derived from dose-response tests. The reported data are derived from at least two independent studies, each comprising three replicates per concentration. See Supplementary Material A1 for more details.

| SMILES | inhibition at 10 µM [1] | inhibition at 10 µM [2] | inhibition at 10 µM [3] | inhibition at 10 µM [4] | viability at 4 days, 50 µM [5] | IC50 [6] | IC50 [7] | IC50 [8] | IC50 [9] | IC50 [10] | melting point |
| --- | --- | --- | --- | --- | --- | --- | --- | --- | --- | --- | --- |
| COc1ccc(-c2cc(-c3ccc(Cl)cc3)nc(SC)n2)cc1 [Compound 9, 4-(4-Chlorophenyl)-6-(4-methoxyphenyl)-2-(methylthio)pyrimidine] | 0.1% | 15.6% | 11.7% | 7.84% | 91% | 60 ± 5 nM | 62 ± 6 nM | 65 ± 6 nM | 62 ± 6 nM | 62 nM | 220 to 221 °C |
| CCSc1nc(-c2ccc(Cl)cc2)cc(-c2ccc(OC)cc2)n1 [Compound 10, 4-(4-Chlorophenyl)-2-(ethylthio)-6-(4-methoxyphenyl)pyrimidine] | < 0% | 9.13% | 2.95% | 2.91% | 90% | 75 ± 7 nM | 74 ± 7 nM | 79 ± 7 nM | 76 ± 7 nM | 76 nM | 230 to 231 °C |
| CCCSc1nc(-c2ccc(Cl)cc2)cc(-c2ccc(OC)cc2)n1 [Compound 11, 4-(4-Chlorophenyl)-6-(4-methoxyphenyl)-2-(propylthio)pyrimidine] | 1.71% | 10.7% | 2.06% | 6.79% | 89% | 52 ± 5 nM | 53 ± 5 nM | 55 ± 5 nM | 54 ± 5 nM | 54 nM | 228 to 230 °C |
| COc1ccc(-c2cc(-c3ccc(Cl)cc3)nc(SC(C)C)n2)cc1 [Compound 12, 4-(4-Chlorophenyl)-2-(isopropylthio)-6-(4-methoxyphenyl)pyrimidine] | 24.1% | 29.2% | 29.9% | 4.52% | 89% | 35 ± 3 nM | 36 ± 3 nM | 37 ± 3 nM | 36 ± 3 nM | 36 nM | 198 to 201 °C |
| C=CCSc1nc(-c2ccc(Cl)cc2)cc(-c2ccc(OC)cc2)n1 [Compound 13, 2-(Allylthio)-4-(4-chlorophenyl)-6-(4-methoxyphenyl)pyrimidine] | 3.79% | 17.2% | 14.3% | 1.47% | 90% | 64 ± 6 nM | 64 ± 6 nM | 68 ± 6 nM | 66 ± 6 nM | 66 nM | 245 to 247 °C |
| COc1ccc(-c2cc(-c3ccc(Cl)cc3)nc(SCc3ccccc3)n2)cc1 [Compound 14, 2-(Benzylthio)-4-(4-chlorophenyl)-6-(4-methoxyphenyl)pyrimidine] | < 0% | 8.96% | 4.54% | < 0% | 90% | 28 ± 2 nM | 28 ± 2 nM | 30 ± 2 nM | 29 ± 2 nM | 29 nM | 288 to 290 °C |
| COc1ccc(CSc2nc(-c3ccc(Cl)cc3)cc(-c3ccc(OC)cc3)n2)cc1 [Compound 15, 2-(4-Methoxybenzylthio)-4-(4-chlorophenyl)-6-(4-methoxyphenyl)pyrimidine] | < 0% | 4.35% | 3.03% | < 0% | 91% | 79 ± 7 nM | 80 ± 7 nM | 82 ± 7 nM | 80 ± 7 nM | 80 nM | 278 to 280 °C |
| COc1ccc(-c2cc(-c3cccc(OC)c3)nc(SC)n2)cc1 [Compound 16, 6-(3-Methoxyphenyl)-4-(4-methoxyphenyl)-2-(methylthio)pyrimidine] | 8.85% | 26.2% | 19.9% | 4.05% | 92% | 86 ± 7 nM | 85 ± 8 nM | 89 ± 8 nM | 85 ± 8 nM | 86 nM | 213 to 215 °C |
| CCSc1nc(-c2ccc(OC)cc2)cc(-c2cccc(OC)c2)n1 [Compound 17, 2-(Ethylthio)-6-(3-methoxyphenyl)-4-(4-methoxyphenyl)pyrimidine] | 2.15% | < 0% | 4.56% | < 0% | 90% | 28 ± 2 nM | 29 ± 2 nM | 30 ± 3 nM | 28 ± 2 nM | 29 nM | 221 to 222 °C |
| CCCSc1nc(-c2ccc(OC)cc2)cc(-c2cccc(OC)c2)n1 [Compound 18, 6-(3-Methoxyphenyl)-4-(4-methoxyphenyl)-2-(propylthio)pyrimidine] | < 0% | 4.83% | 6.49% | < 0% | 87% | 45 ± 4 nM | 46 ± 4 nM | 46 ± 4 nM | 44 ± 4 nM | 45 nM | 218 to 220 °C |
| COc1ccc(CSc2nc(-c3ccc(OC)cc3)cc(-c3cccc(OC)c3)n2)cc1 [Compound 22, 2-(4-Methoxybenzylthio)-6-(3-methoxyphenyl)-4-(4-methoxyphenyl)pyrimidine] | – | – | – | – | 89% | 21 ± 2 nM | 23 ± 2 nM | 23 ± 2 nM | 22 ± 2 nM | 22 nM | – |

Source: publication PMC11576293, “New series of 4,6-diaryl pyrimidines: facile synthesis and antiproliferative activity as dual EGFR/VEGFR-2 inhibitors” (Frontiers in Chemistry, 2024)
